24 compounds from ChEMBL document CHEMBL1143037, “Discovery of +(2-{4-[2-(5,6,7,8-tetrahydro-1,8-naphthyridin-2-yl)ethoxy]phenyl}-cyclopropyl)acetic acid as potent and selective alphavbeta3 inhibitor: design, synthesis, and optimization” (Bioorg Med Chem, 2007) can be followed below.

A short description of data set [1]: (§1) Cmax in Sprague-Dawley rat. The settings on record: Sprague-Dawley, in vivo. In kind it is ADME, organism-based.
Data set [2] is described as follows: (§2) Half life in Sprague-Dawley rat. The data set is classed as ADME, organism-based. As to conditions: Sprague-Dawley, in vivo.
A short description of data set [3]: (§3) Volume of distribution in Sprague-Dawley rat. The data set is classed as ADME, organism-based. The settings on record: Sprague-Dawley, in vivo, read-out: Vdss.
The nature of data set [4]: Clearance in Sprague-Dawley rat. In kind it is ADME, organism-based. As to conditions: in vivo.
Data set [5] concerns the target T1, Integrin alpha-V/beta-3 (Homo sapiens, UniProt P05106+P06756). Nature of the data set: Inhibition of human integrin alpha-v-beta-3 receptor expressed in HEK293 cells. The data set is classed as cell-based.
Another data set addresses Integrin alpha-V/beta-6 (Homo sapiens, UniProt P06756+P18564). Nature of the data set: Inhibition of integrin alpha-beta-6 receptor expressed in HT29 cells. In kind it is cell-based, HT-29.
In data set [6] the target is T1, Integrin alpha-V/beta-3. Nature of the data set: Inhibition of human integrin alpha-v-beta-3 receptor by solid phase receptor assay. The data set is classed as protein-complex assay.
The nature of data set [7]: (§4) Bioavailability in Sprague-Dawley rat. As to conditions: Sprague-Dawley, in vivo. The data set is classed as ADME, organism-based.
Data set [8] is described as follows: Bioavailability in Swiss-Webster mouse at 2 mg/kg. The settings on record: in vivo. The data set is classed as ADME, organism-based.
A short description of data set [9]: Half life in Swiss-Webster mouse at 2 mg/kg. Also noted: dose 2 mg/kg. The settings on record: in vivo. The data set is classed as ADME, organism-based.
A short description of data set [10]: AUC in Swiss-Webster mouse at 20 mg/kg, po. In kind it is ADME, organism-based. Details: dose 20 mg/kg, route oral. The settings on record: plasma.
In a further data set the target is Integrin alpha-V/beta-1 (Homo sapiens, UniProt P05556+P06756). Nature of the data set: Inhibition of integrin alphavbeta1 receptor expressed in HEK293 cells. In kind it is cell-based.
A short description of data set [11]: AUC in Swiss-Webster mouse at 20 mg/kg, iv. In kind it is ADME, organism-based. Details: dose 20 mg/kg, route intravenous. As to conditions: plasma.
A further data set addresses Integrin alpha-V/beta-5 (Homo sapiens, UniProt P06756+P18084). Nature of the data set: Inhibition of integrin alpha-v-beta-5 receptor expressed in HEK293 cells. In kind it is cell-based.
The nature of data set [12]: Bioavailability in Swiss-Webster mouse at 20 mg/kg. The settings on record: in vivo. In kind it is ADME, organism-based.
A short description of data set [13]: Half life in Swiss-Webster mouse at 20 mg/kg. The data set is classed as ADME, organism-based. Details: dose 20 mg/kg. The settings on record: in vivo.
The species entered for data set [14] is Rattus norvegicus. The description is as §2. The settings on record: in vivo. In kind it is ADME, organism-based.
The species entered for data set [15] is Rattus norvegicus. The data set is described as §3. The data set is classed as ADME, organism-based. As to conditions: in vivo.
The species entered for data set [16] is Rattus norvegicus. The data set is described as §4. In kind it is ADME, organism-based. The settings on record: in vivo.
The species entered for data set [17] is Rattus norvegicus. Described as §1. In kind it is ADME, organism-based. As to conditions: in vivo.

Chain of Integrin alpha-V/beta-6 (P06756 31-889 limits assumed): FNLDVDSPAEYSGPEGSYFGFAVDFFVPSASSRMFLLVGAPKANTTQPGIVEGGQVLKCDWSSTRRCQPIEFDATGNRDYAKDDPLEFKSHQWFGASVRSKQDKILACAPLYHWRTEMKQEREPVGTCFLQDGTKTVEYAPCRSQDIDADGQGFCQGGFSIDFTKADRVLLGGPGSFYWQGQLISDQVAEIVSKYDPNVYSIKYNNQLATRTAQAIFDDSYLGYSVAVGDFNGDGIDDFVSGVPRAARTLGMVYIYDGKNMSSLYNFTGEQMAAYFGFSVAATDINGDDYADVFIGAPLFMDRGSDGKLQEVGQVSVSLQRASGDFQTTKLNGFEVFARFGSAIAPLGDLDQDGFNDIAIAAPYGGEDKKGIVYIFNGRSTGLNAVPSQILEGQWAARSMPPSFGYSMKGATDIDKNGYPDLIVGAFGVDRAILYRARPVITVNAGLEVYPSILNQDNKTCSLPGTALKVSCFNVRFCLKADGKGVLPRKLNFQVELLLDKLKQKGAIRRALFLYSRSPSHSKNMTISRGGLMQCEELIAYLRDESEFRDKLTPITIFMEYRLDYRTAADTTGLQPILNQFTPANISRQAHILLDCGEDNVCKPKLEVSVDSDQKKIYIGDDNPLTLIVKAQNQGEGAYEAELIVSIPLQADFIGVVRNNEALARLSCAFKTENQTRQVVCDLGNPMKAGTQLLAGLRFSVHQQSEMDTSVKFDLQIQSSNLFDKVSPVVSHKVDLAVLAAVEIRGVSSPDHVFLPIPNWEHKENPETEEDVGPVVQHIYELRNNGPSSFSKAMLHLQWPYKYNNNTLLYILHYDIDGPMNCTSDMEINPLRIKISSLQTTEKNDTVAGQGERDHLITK
Chain of Integrin alpha-V/beta-6 (P06756 891-1048 limits assumed): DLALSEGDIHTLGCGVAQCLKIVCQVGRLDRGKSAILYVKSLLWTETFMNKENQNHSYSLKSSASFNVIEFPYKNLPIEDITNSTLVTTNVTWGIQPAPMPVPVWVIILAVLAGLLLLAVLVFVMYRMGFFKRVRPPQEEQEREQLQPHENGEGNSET
Chain of Integrin alpha-V/beta-6 (P18564 22-788 limits assumed): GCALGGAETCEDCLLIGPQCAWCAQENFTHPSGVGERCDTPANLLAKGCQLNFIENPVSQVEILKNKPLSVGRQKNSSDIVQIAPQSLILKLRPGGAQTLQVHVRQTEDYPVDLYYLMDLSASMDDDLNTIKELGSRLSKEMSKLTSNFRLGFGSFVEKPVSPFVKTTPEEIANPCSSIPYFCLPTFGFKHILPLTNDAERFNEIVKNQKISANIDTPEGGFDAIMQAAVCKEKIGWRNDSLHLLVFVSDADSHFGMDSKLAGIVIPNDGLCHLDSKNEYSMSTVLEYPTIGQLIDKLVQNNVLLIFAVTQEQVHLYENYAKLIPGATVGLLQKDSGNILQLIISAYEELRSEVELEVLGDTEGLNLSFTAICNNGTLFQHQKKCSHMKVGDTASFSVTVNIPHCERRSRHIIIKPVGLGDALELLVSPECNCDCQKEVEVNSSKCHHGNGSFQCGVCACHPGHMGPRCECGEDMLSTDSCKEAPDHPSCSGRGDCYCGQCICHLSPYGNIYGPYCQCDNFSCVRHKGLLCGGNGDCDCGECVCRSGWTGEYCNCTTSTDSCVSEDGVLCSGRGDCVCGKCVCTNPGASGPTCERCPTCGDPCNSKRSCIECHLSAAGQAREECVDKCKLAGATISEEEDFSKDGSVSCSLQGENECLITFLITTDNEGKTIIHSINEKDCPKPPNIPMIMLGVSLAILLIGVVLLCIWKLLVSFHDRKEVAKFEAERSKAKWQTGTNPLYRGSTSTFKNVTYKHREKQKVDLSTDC
Chain of Integrin alpha-V/beta-5 (P06756 31-889 limits assumed): as the sequence (P06756 31-889 limits assumed) above
Chain of Integrin alpha-V/beta-5 (P06756 891-1048 limits assumed): as the sequence (P06756 891-1048 limits assumed) above
Chain of Integrin alpha-V/beta-5 (P18084 24-799 limits assumed): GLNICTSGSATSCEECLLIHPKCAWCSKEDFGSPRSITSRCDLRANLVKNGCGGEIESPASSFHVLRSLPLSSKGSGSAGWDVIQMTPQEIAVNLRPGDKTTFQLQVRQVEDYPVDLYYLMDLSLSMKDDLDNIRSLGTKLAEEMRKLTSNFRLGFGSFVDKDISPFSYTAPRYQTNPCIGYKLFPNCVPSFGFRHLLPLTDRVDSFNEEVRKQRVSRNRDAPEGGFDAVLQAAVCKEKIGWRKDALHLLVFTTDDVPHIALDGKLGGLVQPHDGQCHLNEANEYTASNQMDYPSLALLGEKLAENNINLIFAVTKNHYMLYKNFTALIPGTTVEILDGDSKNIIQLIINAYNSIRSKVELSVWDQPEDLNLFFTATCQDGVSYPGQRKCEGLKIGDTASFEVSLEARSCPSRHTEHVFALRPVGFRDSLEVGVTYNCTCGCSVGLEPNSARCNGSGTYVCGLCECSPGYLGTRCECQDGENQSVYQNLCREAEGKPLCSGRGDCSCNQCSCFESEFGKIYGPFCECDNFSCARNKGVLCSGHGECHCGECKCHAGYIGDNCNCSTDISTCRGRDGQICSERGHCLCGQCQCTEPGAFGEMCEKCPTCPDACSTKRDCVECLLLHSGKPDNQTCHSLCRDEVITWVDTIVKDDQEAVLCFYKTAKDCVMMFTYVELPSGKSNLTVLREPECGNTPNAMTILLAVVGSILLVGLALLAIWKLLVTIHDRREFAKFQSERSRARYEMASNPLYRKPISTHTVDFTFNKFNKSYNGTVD
T1 sequence (P05106 27-788 limits assumed): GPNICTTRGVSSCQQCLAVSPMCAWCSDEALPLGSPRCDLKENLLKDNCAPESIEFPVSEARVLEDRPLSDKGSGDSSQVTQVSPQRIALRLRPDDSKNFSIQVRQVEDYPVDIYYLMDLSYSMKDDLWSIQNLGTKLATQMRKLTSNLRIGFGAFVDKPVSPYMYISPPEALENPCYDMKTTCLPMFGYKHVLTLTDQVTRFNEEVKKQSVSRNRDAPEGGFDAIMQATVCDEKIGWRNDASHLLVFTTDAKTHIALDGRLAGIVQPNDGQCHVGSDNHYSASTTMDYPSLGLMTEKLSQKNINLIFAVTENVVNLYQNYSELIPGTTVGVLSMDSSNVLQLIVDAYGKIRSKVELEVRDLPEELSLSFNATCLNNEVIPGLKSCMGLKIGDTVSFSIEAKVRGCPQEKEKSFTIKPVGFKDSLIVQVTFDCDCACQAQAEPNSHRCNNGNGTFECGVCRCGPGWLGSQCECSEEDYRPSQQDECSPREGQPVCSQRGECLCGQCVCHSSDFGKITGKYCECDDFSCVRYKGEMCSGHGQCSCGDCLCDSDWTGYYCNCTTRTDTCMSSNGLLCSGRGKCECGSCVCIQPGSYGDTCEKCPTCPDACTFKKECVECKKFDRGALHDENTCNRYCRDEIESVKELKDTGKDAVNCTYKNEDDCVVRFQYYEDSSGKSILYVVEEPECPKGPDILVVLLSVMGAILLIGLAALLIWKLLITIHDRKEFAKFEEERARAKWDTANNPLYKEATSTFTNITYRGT
T1 sequence (P06756 31-889 limits assumed): as the sequence (P06756 31-889 limits assumed) above
T1 sequence (P06756 891-1048 limits assumed): as the sequence (P06756 891-1048 limits assumed) above
Chain of Integrin alpha-V/beta-1 (P05556 21-798 limits assumed): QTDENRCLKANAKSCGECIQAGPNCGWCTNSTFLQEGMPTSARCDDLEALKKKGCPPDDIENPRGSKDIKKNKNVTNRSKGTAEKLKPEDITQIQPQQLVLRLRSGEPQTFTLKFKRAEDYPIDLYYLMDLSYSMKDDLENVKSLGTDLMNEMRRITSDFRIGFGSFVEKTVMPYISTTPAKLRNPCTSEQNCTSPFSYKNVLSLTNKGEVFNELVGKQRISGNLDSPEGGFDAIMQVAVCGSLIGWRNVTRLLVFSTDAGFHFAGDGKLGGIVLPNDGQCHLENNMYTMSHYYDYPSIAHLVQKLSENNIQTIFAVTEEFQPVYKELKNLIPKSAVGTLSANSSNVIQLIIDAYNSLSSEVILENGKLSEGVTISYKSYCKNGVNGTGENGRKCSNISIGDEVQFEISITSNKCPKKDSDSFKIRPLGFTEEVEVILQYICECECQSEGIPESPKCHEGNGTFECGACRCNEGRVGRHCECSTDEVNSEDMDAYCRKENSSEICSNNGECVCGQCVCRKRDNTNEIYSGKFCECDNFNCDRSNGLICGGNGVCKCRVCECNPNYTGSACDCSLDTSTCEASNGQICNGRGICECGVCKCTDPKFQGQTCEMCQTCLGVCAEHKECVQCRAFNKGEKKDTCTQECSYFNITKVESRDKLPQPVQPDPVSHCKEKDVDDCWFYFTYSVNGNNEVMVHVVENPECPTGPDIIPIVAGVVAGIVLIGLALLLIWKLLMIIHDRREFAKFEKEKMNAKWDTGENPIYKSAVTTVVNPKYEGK
Chain of Integrin alpha-V/beta-1 (P06756 31-889 limits assumed): as the sequence (P06756 31-889 limits assumed) above
Chain of Integrin alpha-V/beta-1 (P06756 891-1048 limits assumed): as the sequence (P06756 891-1048 limits assumed) above

As for `O=C(O)CC1C(c2ccc(OCCc3ccc4c(n3)NCCC4)cc2)C1(Cl)Cl` (stereo unspecified), the concentration in data set [1] peaked (Cmax) at 17400 ng/mL. This compound showed a half-life in data set [2] of 240 min. Also, the Vd in data set [3] is 0.493 L/kg. In [4], this compound registered a clearance of 2.2 mL/min/kg. In addition, the IC50 against Integrin alpha-V/beta-3 [5] amounted to 1.5 nM; against Integrin alpha-V/beta-6 it was 4.5 µM; against Integrin alpha-V/beta-3 [6], 1.6 nM. The compound further showed a bioavailability in [7] of 100%.
For `O=C(O)CC1(c2ccccc2)CC1c1ccc(OCCc2ccc3c(n2)NCCC3)cc1` (stereo unspecified), it took 2700 nM to reach half-maximal inhibition against Integrin alpha-V/beta-3 [6] (IC50).
On Integrin alpha-V/beta-3 [6], `CC1(c2ccc(OCCc3ccc4c(n3)NCCC4)cc2)CC1CC(=O)O` (stereo unspecified) displayed an IC50 of 36 nM.
Take `O=C(O)CC1CC1c1ccc(OCCCNc2ccccn2)cc1` (stereo unspecified): the IC50 on Integrin alpha-V/beta-3 [5] amounted to 42 nM; on Integrin alpha-V/beta-1 it was 234 nM; on Integrin alpha-V/beta-3 [6], 19 nM. For the same compound, in [8], the bioavailability was 79%. This compound also gave a half-life in [9] of 138 min. In addition, the AUC in [10] came out at 18300 ng·h/mL; in [11], 14200 ng·h/mL.
With `O=C(O)CC1CC1c1ccc(OCCc2ccc3c(n2)NCCC3)c(O)c1` (stereo unspecified), the IC50 at Integrin alpha-V/beta-5 stood at 3 nM; against Integrin alpha-V/beta-3 [5], 0.9 nM; against Integrin alpha-V/beta-6 it was 9.8 µM; at Integrin alpha-V/beta-3 [6] it was 1 nM.
As to `O=C(O)CC1CC1c1ccc(OCCc2ccc3c(n2)NCCC3)nc1` (stereo unspecified), the values for the half-maximal inhibitory concentration (IC50) on Integrin alpha-V/beta-6 and against Integrin alpha-V/beta-3 [6] were 10 µM and 1900 nM, respectively.
Regarding `O=C(O)CC1CC1c1cccc(OCCc2ccc3c(n2)NCCC3)c1` (stereo unspecified), the results for the half-maximal inhibitory concentration (IC50) on Integrin alpha-V/beta-3 [5], at Integrin alpha-V/beta-6 and at Integrin alpha-V/beta-3 [6] were 205 nM, 9.6 µM and 776 nM, respectively.
Consider `O=C(O)CC1CC1c1ccc(OCCc2ccc3c(n2)NCCC3)c(F)c1` (stereo unspecified), for which the peak level in data set [1] (Cmax) was 15000 ng/mL. This compound also gave a half-life in [2] of 222 min. Moreover, the Vd in [3] worked out at 0.864 L/kg. In [4], the clearance is 5.8 mL/min/kg. Moreover, the IC50 is 3 nM against Integrin alpha-V/beta-5; 11 nM against Integrin alpha-V/beta-3 [5]; 11 nM on Integrin alpha-V/beta-1; 3.53 µM on Integrin alpha-V/beta-6; 0.5 nM on Integrin alpha-V/beta-3 [6]. Further, the bioavailability in data set [7] came out at 100%.
The compound `O=C(O)CCC1CC1c1ccc(OCc2ccc3c(n2)NCCC3)cc1` (stereo unspecified) returned a 50% inhibitory concentration (IC50) on Integrin alpha-V/beta-3 [6] of 1000 nM.
Turning to `O=C(O)CCC1CC1c1cccc(OCCc2ccc3c(n2)NCCC3)c1` (stereo unspecified), the IC50 against Integrin alpha-V/beta-3 [5] was found to be 525 nM; on Integrin alpha-V/beta-3 [6], 954 nM.
Regarding `CNc1cccc(CCOc2ccc(C3CC3CC(=O)O)cc2)n1` (stereo unspecified), the IC50 against Integrin alpha-V/beta-3 [5] stood at 7 nM; at Integrin alpha-V/beta-6, 20 µM; on Integrin alpha-V/beta-3 [6], 7.4 nM.
On to `O=C(O)CC(Cc1ccc(OCCCNc2ccccn2)cc1)c1cccnc1` (stereo unspecified), for which the IC50 against Integrin alpha-V/beta-3 [5] came out at 2 nM; on Integrin alpha-V/beta-1 it was 28 nM; against Integrin alpha-V/beta-6, 25 µM; against Integrin alpha-V/beta-3 [6] it was 0.5 nM. Besides, the bioavailability in [8] stood at 100%. In [9], this compound gave a half-life of 102 min. The AUC was determined as 300 ng·h/mL in [10] and 200 ng·h/mL in [11].
Turning to `CC(CC(=O)O)Cc1ccc(OCCCNc2ccccn2)cc1` (stereo unspecified), the IC50 was 33 nM on Integrin alpha-V/beta-5; 51 nM at Integrin alpha-V/beta-3 [5]; 102 nM against Integrin alpha-V/beta-1; 4.36 µM against Integrin alpha-V/beta-6; 21 nM at Integrin alpha-V/beta-3 [6]. The bioavailability in data set [12] is 92%. Also, the AUC in [10] turned out to be 195000 ng·h/mL; in [11], 106000 ng·h/mL. This compound gave a half-life in [13] of 246 min.
Take `O=C(O)CC(Cc1ccc(OCCCNc2ccccn2)cc1)c1ccccc1` (stereo unspecified): the IC50 at Integrin alpha-V/beta-5 came to 20 nM; at Integrin alpha-V/beta-3 [5], 29 nM; at Integrin alpha-V/beta-1, 96 nM; against Integrin alpha-V/beta-6 it was 19.8 µM; at Integrin alpha-V/beta-3 [6], 8 nM. This compound gave a bioavailability in data set [8] of 100%. This compound had a half-life in data set [9] of 264 min. Moreover, the values for the AUC in data set [10] and in [11] were 2800 ng·h/mL and 2300 ng·h/mL, respectively.
As to `O=C(O)CCC1CC1c1ccc(OCCc2ccc3c(n2)NCCC3)nc1` (stereo unspecified), the IC50 was found to be 156 nM at Integrin alpha-V/beta-3 [5] and 472 nM against Integrin alpha-V/beta-3 [6].
For `O=C(O)CC1C(c2ccc(OCCc3ccc4c(n3)NCCC4)cc2)C1(Br)Br` (stereo unspecified), the IC50 turned out to be 20 nM at Integrin alpha-V/beta-5, 1.7 nM on Integrin alpha-V/beta-3 [5], 4.33 µM against Integrin alpha-V/beta-6 and 3.3 nM on Integrin alpha-V/beta-3 [6].
Consider `O=C(O)CC1CC1c1ccc(OCCc2ccc3c(n2)NCCC3)c(F)c1F` (stereo unspecified), for which the half-maximal inhibitory concentration (IC50) came to 10 nM on Integrin alpha-V/beta-3 [5], 10 µM at Integrin alpha-V/beta-6 and 2 nM against Integrin alpha-V/beta-3 [6].
At Integrin alpha-V/beta-3 [6], `CC1(C)[C@H](c2ccc(OCCc3ccc4c(n3)NCCC4)cc2)[C@@H]1CC(=O)O` (relative stereo) had an IC50 of 12 nM.
`CC1(C)C(CC(=O)O)C1c1ccc(OCCc2ccc3c(n2)NCCC3)cc1` (single isomer, unassigned; (-)): the IC50 on Integrin alpha-V/beta-6 worked out at 10 µM; at Integrin alpha-V/beta-3 [6], 42 nM.
In the case of `O=C(O)CC1CC1c1ccc(OCCc2ccc3c(n2)NCCC3)cc1` (single isomer, unassigned; (-)), the IC50 amounted to 33 nM on Integrin alpha-V/beta-5; 16 nM against Integrin alpha-V/beta-3 [5]; 297 nM against Integrin alpha-V/beta-1; 10 µM against Integrin alpha-V/beta-6; 16 nM on Integrin alpha-V/beta-3 [6].
The compound `O=C(O)CC1CC1c1ccc(OCCc2ccc3c(n2)NCCC3)cc1` (stereo in doubt; 7) showed a maximum concentration (Cmax) in data set [1] of 24500 ng/mL. In the data set listed under Rattus norvegicus [14], this compound showed a t1/2 of 1.6 h. This compound also yielded a Vdss in the data set listed under Rattus norvegicus [15] of 221 mL/kg. Besides, the IC50 amounted to 4.4 nM against Integrin alpha-V/beta-5, 3 nM at Integrin alpha-V/beta-3 [5], 64 nM on Integrin alpha-V/beta-1 and 5 nM on Integrin alpha-V/beta-3 [6]. In addition, the bioavailability in data set [8] stood at 62%. For the same compound, the half-life in data set [9] was 96 min. In addition, the AUC was determined as 398000 ng·h/mL in [10] and 378000 ng·h/mL in data set [11]. In the data set filed under Rattus norvegicus [16], this compound gave an F of 62%.
The compound `CC1(C)C(CC(=O)O)C1c1ccc(OCCc2ccc3c(n2)NCCC3)cc1` (stereo in doubt; 83) showed a Cmax in the data set listed under Rattus norvegicus [17] of 23.5 µg/mL. This compound gave a t1/2 in the data set filed under Rattus norvegicus [14] of 3.5 h. Further, the Vdss in the data set filed under Rattus norvegicus [15] is 419 mL/kg. Also, the results for the IC50 against Integrin alpha-V/beta-3 [5], on Integrin alpha-V/beta-6 and against Integrin alpha-V/beta-3 [6] were 1.5 nM, 10 µM and 1.3 nM, respectively.
Consider `O=C(O)CC1CC1c1ccc(OCCc2ccc3c(n2)NCCC3)cc1` (stereo in doubt; (+)7), for which, in the data set filed under Rattus norvegicus [17], the Cmax amounted to 14.8 µg/mL. In the data set listed under Rattus norvegicus [14], this compound had a t1/2 of 4 h. In the data set listed under Rattus norvegicus [15], this compound showed a Vdss of 915 mL/kg. For the same compound, the half-inhibitory concentration (IC50) against Integrin alpha-V/beta-5 stood at 1.4 nM; against Integrin alpha-V/beta-3 [5], 0.6 nM; on Integrin alpha-V/beta-1 it was 6 nM; at Integrin alpha-V/beta-6, 2.57 µM; on Integrin alpha-V/beta-3 [6] it was 0.6 nM. Besides, the F in the data set listed under Rattus norvegicus [16] was determined as 100%.
In data set [1], `CC1(C)C(CC(=O)O)C1c1ccc(OCCc2ccc3c(n2)NCCC3)cc1` (stereo in doubt; (+)83) returned a Cmax of 33000 ng/mL. In data set [2], this compound showed a half-life of 306 min. Further, the Vd in [3] amounted to 0.276 L/kg. For the same compound, the clearance in [4] turned out to be 0.9 mL/min/kg. Further, the IC50 at Integrin alpha-V/beta-5 came to 4 nM; against Integrin alpha-V/beta-3 [5] it was 0.4 nM; against Integrin alpha-V/beta-6, 1.79 µM; against Integrin alpha-V/beta-3 [6], 0.4 nM. In data set [7], this compound displayed a bioavailability of 100%.
